# Experiment: Solubility of compound (B) in solvent (solid content of saturated solution)
# Type: physicochemical
# Experimental: Specifically, whether a specific solvent is the component (C) or the component (D) is determined depending on the type of the component (B). […] In more detail, the solubility is determined by measuring the solid content of the component (B) in a solution consisting of the component (B) and the solvent.
# The supernatant liquid of the resulting mixture was dried on a hot plate at 120° C. for one hour and weighed to calculate the solid content.
# [1] = solvent: IPA (isopropyl alcohol)
Molecule,solubility in solvent [1],solubility in solvent (solvent: MeOH (methanol)),solubility in solvent (solvent: EtOH (ethanol)),solubility in solvent (solvent: water) [wt %]
"C=CC(=O)OCC(COCC(COC(=O)C=C)(COC(=O)C=C)COC(=O)C=C)(COC(=O)C=C)COC(=O)C=C [Example B-1, Dipentaerythritol hexaacrylate]",≧50 wt %,≧50 wt %,–,–
Tricyclodecanediyldimethanol diacrylate [Example B-2],≧50 wt %,≧50 wt %,≧50 wt %,<0.1
"C=CC(=O)OCCn1c(=O)n(CCOC(=O)C=C)c(=O)n(CCOC(=O)C=C)c1=O [Example B-3, Tris(2-hydroxyethyl)isocyanurate triacrylate]",7.1 wt %,49 wt %,1.8 wt %,1.2

# Reference: US20070155882A1, “Curable liquid composition, cured film, and antistatic laminate” (priority 2003, published 2007)
